# Columns and labels:
# DHODH KO HT-1080 cells = experiment: Mitochondrial lipid peroxidation (mito-BODIPY) in DHODH KO HT-1080 cells; type: cell-based, human; details: pretreatment 10 μM, 24 hours
# HT-1080 xenograft tumors = experiment: HT-1080 cell line-derived xenograft model; type: in vivo, athymic nude mice; details: liproxstatin-1 10 mg/kg intraperitoneally daily
# Experimental: (§1) Fresh tumor tissues were fixed in 10% neutral buffered formalin overnight, washed once with PBS, and stored in 70% ethanol at 4° C. The tissues were dehydrated and embedded in paraffin by the Research Histology Core Laboratory (MD Anderson Cancer Center) according to standard protocols. Embedded tissues were sectioned at a thickness of 5 μm for H&E or immunohistochemistry (IHC) analysis. IHC analysis was performed as previously described (Gan, B., et al., Cancer Cell 18, 472-484 (2010); Gan, B., et al., J Cell Biol 175, 121-133 (2006)). Briefly, the primary antibodies, including ki-67 (1:500, 9027s, Cell Signaling Technology), cleaved-caspase 3 (1:500, 9661s, Cell Signaling Technology), or 4-HNE (1:400, ab46545, Abcam) were incubated overnight at 4° C. Staining was performed using the Vectastain elite ABC kit and DAB peroxidase substrate kit (Vector laboratories). Images were randomly taken from the […] (five images per tumor) at ×200 magnification using an Olympus BX43 microscope. All the xenograft experiments were performed in accordance with a protocol approved by the Institutional Animal Care and Use Committee and Institutional Review Board at The University of Texas MD Anderson Cancer Center. The study is compliant with all relevant ethical regulations regarding animal research. Female 4- to 6-week-old athymic nude mice (Foxn1^nu/Foxn1^nu) were purchased from the Experimental Radiation Oncology Breeding Core Facility at MD Anderson Cancer Center and housed in the Animal Care Facility at the Department of Veterinary Medicine and Surgery at MD Anderson. Cancer cell lines were suspended and counted in cold phosphate-buffered saline (PBS), and 5×10^6 HT-1080 or 1×10^7 NCI-H226 cells were injected into mice subcutaneously. When the tumor reached 50-100 mm^3, the mice were assigned randomly into different treatment groups. Brequinar or sulfasalazine was dissolved in dimethyl sulfoxide (DMSO) and diluted in PBS. Brequinar was intraperitoneally injected into mice at a dose of 30 mg/kg every three days. Sulfasalazine was intraperitoneally injected daily at a dose of 100 mg/kg. Liproxstatin-1 diluted in PBS was intraperitoneally injected daily at a dose of 10 mg/kg. The daily injection of brequinar, sulfasalazine, or liproxstatin-1 was continued until the endpoint as indicated in the corresponding figures. The tumor volume was measured every 3 days until the endpoint and calculated according to the equation volume=length×width^2×½.
# GPX4-knockdown tumors = experiment: GPX4-knockdown HT-1080 xenograft model; type: in vivo, athymic nude mice; details: liproxstatin-1 10 mg/kg intraperitoneally daily
# Experimental: as §1
# [1] = tested on: GPX4^low NCI-H226 xenografts; experiment: NCI-H226 xenograft model; type: in vivo, athymic nude mice; details: liproxstatin-1 10 mg/kg intraperitoneally daily
# Experimental: All the xenograft experiments were performed in accordance with a protocol approved by the Institutional Animal Care and Use Committee and Institutional Review Board at The University of Texas MD Anderson Cancer Center. The study is compliant with all relevant ethical regulations regarding animal research. Female 4- to 6-week-old athymic nude mice (Foxn1^nu/Foxn1^nu) were purchased from the Experimental Radiation Oncology Breeding Core Facility at MD Anderson Cancer Center and housed in the Animal Care Facility at the Department of Veterinary Medicine and Surgery at MD Anderson. Cancer cell lines were suspended and counted in cold phosphate-buffered saline (PBS), and 5×10^6 HT-1080 or 1×10^7 NCI-H226 cells were injected into mice subcutaneously. When the tumor reached 50-100 mm^3, the mice were assigned randomly into different treatment groups. Brequinar or sulfasalazine was dissolved in dimethyl sulfoxide (DMSO) and diluted in PBS. Brequinar was intraperitoneally injected into mice at a dose of 30 mg/kg every three days. Sulfasalazine was intraperitoneally injected daily at a dose of 100 mg/kg. Liproxstatin-1 diluted in PBS was intraperitoneally injected daily at a dose of 10 mg/kg. […] The tumor volume was measured every 3 days until the endpoint and calculated according to the equation volume=length×width^2×½.
# [2] = tested on: GPX4^low patient-derived xenografts (PDXs); experiment: GPX4^low patient-derived xenograft model; type: in vivo, NSG mice; details: liproxstatin-1 10 mg/kg intraperitoneally daily
# Excerpt: PDXs were generated in accordance with protocols approved by the Institutional Review Board at The University of Texas MD Anderson Cancer Center. Informed consent was obtained from the patients and the study is compliant with all relevant ethical regulations regarding research involving human participants. All the NOD scid gamma (NSG) mice were purchased from the Experimental Radiation Oncology Breeding Core Facility at MD Anderson Cancer Center and housed in the Animal Care Facility at the Department of Veterinary Medicine and Surgery at MD Anderson Cancer Center. PDX model used in this study was originally obtained from lung cancer PDX platform at MD Anderson Cancer Center. PDX experiments were performed as previously described (Liu, X., et al., Nat Cell Biol 22, 476-486 (2020)). Briefly, PDX tumors in cold DMEM media were minced into fragments 1-2 mm^3 in volume. Then each PDX tumor fragment was subcutaneously inoculated into the dorsal flank of NSG mice. When the tumors reached 50-100 mm 3 in volume, the mice were assigned randomly into different treatment groups for the treatment of brequinar, sulfasalazine, and/or liproxstatin-1 as described under cell line-derived xenograft model. The tumor volume was measured every 3 days until the endpoint and calculated according to the equation volume=length×width^2×½.
compound,measurement,setting,value
Clc1cccc(CN=C2Nc3ccccc3NC23CCNCC3)c1 [liproxstatin-1],suppression of GPX4 inhibitor-induced mitochondrial lipid peroxidation,DHODH KO HT-1080 cells,could be suppressed
same,restoration of tumor growth suppressed by brequinar and sulfasalazine,HT-1080 xenograft tumors,largely restored
same,restoration of tumor growth under brequinar treatment,GPX4-knockdown tumors,largely restored the growth
same,restoration of brequinar-suppressed tumor growth,[1],could be restored
same,restoration of brequinar-suppressed tumor growth,[2],could be restored
